Assays:
AMBEL (Ragweed, Common) = test: Postemergence herbicidal evaluation; type: in vivo, Ambrosia artemisifolia; conditions: postemergence
Outline: (§1)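 Two-week seedlings sprayed postemergence at 40 psi; formulation: 1:1 acetone/water, 0.5% TWEEN 20; application ≈0.0156–0.500 kg/ha. Greenhouse grow-out, then 0–9 visual scoring at 4–5 weeks.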

CASOB (Sicklepod) [1] = test: Postemergence herbicidal evaluation; type: in vivo, Cassia obtusifolia; conditions: postemergence
Outline: as §1

[2] = tested on: CHEAL (Lambsquarters, Common); test: Postemergence herbicidal evaluation; type: in vivo, Chenopodium album; conditions: postemergence
Outline: as §1

GALAP (Galium) [3] = test: Postemergence herbicidal evaluation; type: in vivo, Galium aparine; conditions: postemergence
Outline: as §1

ECHCG (Barnyardgrass) = test: Postemergence herbicidal evaluation; type: in vivo, Echinochloa crus-galli; conditions: postemergence
Outline: as §1

SETVI (Foxtail, Green) = test: Postemergence herbicidal evaluation; type: in vivo, Setaria viridis; conditions: postemergence
Outline: as §1

[4] = tested on: GLXMAW (Soybean, Williams); test: Postemergence herbicidal evaluation; type: in vivo, Glycine max, (L.) Merr. cv Williams; conditions: postemergence
Outline: as §1

ORYSAT (Rice, Tebonnet) = test: Postemergence herbicidal evaluation; type: in vivo, Oryza sativa, (L.) Tebonnet; conditions: postemergence
Outline: as §1

CASOB (Sicklepod) [5] = test: Preemergence herbicidal evaluation; type: in vivo, Cassia obtusifolia; conditions: rated 4-5 weeks after treatment
Outline: (§2)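 Herbicidal effect scored visually, 0-9, at 4 to 5 weeks against a control; compound applied preemergence by aqueous acetone spray to seeded soil at about 0.0156 to 0.500 kg/ha.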

GALAP (Galium) [6] = test: Preemergence herbicidal evaluation; type: in vivo, Galium aparine; conditions: rated 4-5 weeks after treatment
Outline: as §2

ZEAMX (Corn, Field) = test: Preemergence herbicidal evaluation; type: in vivo, Zea mays; conditions: rated 4-5 weeks after treatment
Outline: as §2

CYPIR (Rice Flatsedge) = test: Preemergence weed control under flooded paddy conditions; type: in vivo, Cyperus iria; conditions: rated 3-4 weeks after treatment
Outline: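 First, seeds or propagules go into the top 0.5 cm of silt loam; next, water is held 1.5 to 3 cm over the soil; then compound (50/50 acetone/water) is pipetted into it at about 0.0313 to 0.500 kg/ha; finally plants are rated visually 0-9 after three to four weeks.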

CYPSE (Flatsedge) [7] = test: as above; type: in vivo, Cyperus serotinus; conditions: rated 3-4 weeks after treatment
Outline: (§3)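 Values are visual 0-9 scores against a control for a preemergence application into paddy flood water at about 0.0313 to 0.500 kg/ha. Greenhouse duration was three to four weeks.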

[8] = tested on: SAGPY (Arrowhead (Pygmaea)); test: as above; type: in vivo, Sagittaria pygmaea; conditions: rated 3-4 weeks after treatment
Outline: as §3

CYPSE (Flatsedge) [9] = test: Postemergence weed control under flooded paddy conditions; type: in vivo, Cyperus serotinus; conditions: postemergence weeds, 3-4 weeks after treatment
Outline: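 Flood-water application, about 0.0313–0.500 kg/ha a.i. in aqueous/acetone 50/50 v/v; water depth 1.5–3 cm throughout. Weeds 3–5 cm, rice 1.5–2.5 leaf. Greenhouse; 0–9 visual rating vs control at 3–4 wk.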

## CCOC(=O)CN1C(=O)CO/C1=N/c1cc(-n2c(=O)cc(C(F)(F)F)n(C)c2=O)c(F)cc1Cl [Compound 22, Ethyl 2-{{2-chloro-5-[3,6-dihydro-3-methyl-2,6-dioxo-4-(trifluoromethyl)-1(2H)-pyrimidinyl]-4-fluorophenyl}imino}-4-oxo-3-oxazolidineacetate]
AMBEL (Ragweed, Common); rate 0.0158 kg/ha
  AMBEL herbicidal rating: 6.0
AMBEL (Ragweed, Common); rate 0.0315 kg/ha
  AMBEL herbicidal rating: 6.0
AMBEL (Ragweed, Common); rate 0.0630 kg/ha
  AMBEL herbicidal rating: 7.0
CASOB (Sicklepod) [1]; rate 0.0158 kg/ha
  CASOB herbicidal rating: 1.0
CASOB (Sicklepod) [1]; rate 0.0315 kg/ha
  CASOB herbicidal rating: 2.0
CASOB (Sicklepod) [1]; rate 0.0630 kg/ha
  CASOB herbicidal rating: 1.0
[2]; rate 0.0158 kg/ha
  CHEAL herbicidal rating: 4.0
[2]; rate 0.0315 kg/ha
  CHEAL herbicidal rating: 6.0
[2]; rate 0.0630 kg/ha
  CHEAL herbicidal rating: 3.0
GALAP (Galium) [3]; rate 0.0158 kg/ha
  GALAP herbicidal rating: 4.0
GALAP (Galium) [3]; rate 0.0315 kg/ha
  GALAP herbicidal rating: 4.0
GALAP (Galium) [3]; rate 0.0630 kg/ha
  GALAP herbicidal rating: 3.0
ECHCG (Barnyardgrass); rate 0.0158 kg/ha
  ECHCG herbicidal rating: 2.0
ECHCG (Barnyardgrass); rate 0.0315 kg/ha
  ECHCG herbicidal rating: 2.0
ECHCG (Barnyardgrass); rate 0.0630 kg/ha
  ECHCG herbicidal rating: 1.0
SETVI (Foxtail, Green); rate 0.0158 kg/ha
  SETVI herbicidal rating: 3.0
SETVI (Foxtail, Green); rate 0.0315 kg/ha
  SETVI herbicidal rating: 5.0
SETVI (Foxtail, Green); rate 0.0630 kg/ha
  SETVI herbicidal rating: 7.0
[4]; rate 0.0158 kg/ha
  GLXMAW herbicidal rating: 5.5
[4]; rate 0.0315 kg/ha
  GLXMAW herbicidal rating: 6.5
[4]; rate 0.0630 kg/ha
  GLXMAW herbicidal rating: 5.5
ORYSAT (Rice, Tebonnet); rate 0.0158 kg/ha
  ORYSAT herbicidal rating: 2.5
ORYSAT (Rice, Tebonnet); rate 0.0315 kg/ha
  ORYSAT herbicidal rating: 3.0
ORYSAT (Rice, Tebonnet); rate 0.0630 kg/ha
  ORYSAT herbicidal rating: 4.5
CASOB (Sicklepod) [5]; rate 0.0156 kg/ha
  CASOB preemergence herbicidal rating: 0.0
CASOB (Sicklepod) [5]; rate 0.0313 kg/ha
  CASOB preemergence herbicidal rating: 0.0
CASOB (Sicklepod) [5]; rate 0.0625 kg/ha
  CASOB preemergence herbicidal rating: 0.0
CASOB (Sicklepod) [5]; rate 0.1250 kg/ha
  CASOB preemergence herbicidal rating: 3.0
CASOB (Sicklepod) [5]; rate 0.2500 kg/ha
  CASOB preemergence herbicidal rating: 9.0
GALAP (Galium) [6]; rate 0.0156 kg/ha
  GALAP preemergence herbicidal rating: 0.0
GALAP (Galium) [6]; rate 0.0313 kg/ha
  GALAP preemergence herbicidal rating: 0.0
GALAP (Galium) [6]; rate 0.0625 kg/ha
  GALAP preemergence herbicidal rating: 0.0
GALAP (Galium) [6]; rate 0.1250 kg/ha
  GALAP preemergence herbicidal rating: 0.0
GALAP (Galium) [6]; rate 0.2500 kg/ha
  GALAP preemergence herbicidal rating: 9.0
ZEAMX (Corn, Field); rate 0.0156 kg/ha
  ZEAMX preemergence herbicidal rating: 2.0
ZEAMX (Corn, Field); rate 0.0313 kg/ha
  ZEAMX preemergence herbicidal rating: 5.0
ZEAMX (Corn, Field); rate 0.0625 kg/ha
  ZEAMX preemergence herbicidal rating: 7.0
ZEAMX (Corn, Field); rate 0.1250 kg/ha
  ZEAMX preemergence herbicidal rating: 8.0
ZEAMX (Corn, Field); rate 0.2500 kg/ha
  ZEAMX preemergence herbicidal rating: 9.0
CYPIR (Rice Flatsedge); 0.1160 kg/ha
  Herbicidal rating CYPIR: 0.0
CYPIR (Rice Flatsedge); 0.2310 kg/ha
  Herbicidal rating CYPIR: 0.0
CYPIR (Rice Flatsedge); 0.4630 kg/ha
  Herbicidal rating CYPIR: 5.0
CYPSE (Flatsedge) [7]; 0.1160 kg/ha
  Herbicidal rating CYPSE: 4.0
CYPSE (Flatsedge) [7]; 0.2310 kg/ha
  Herbicidal rating CYPSE: 4.0
CYPSE (Flatsedge) [7]; 0.4630 kg/ha
  Herbicidal rating CYPSE: 4.0
[8]; 0.1160 kg/ha
  Herbicidal rating SAGPY: 4.0
[8]; 0.2310 kg/ha
  Herbicidal rating SAGPY: 4.0
[8]; 0.4630 kg/ha
  Herbicidal rating SAGPY: 5.0
CYPSE (Flatsedge) [9]; rate 0.1160 kg/ha
  Herbicidal rating CYPSE: 4.0
CYPSE (Flatsedge) [9]; rate 0.2310 kg/ha
  Herbicidal rating CYPSE: 4.0
CYPSE (Flatsedge) [9]; rate 0.4630 kg/ha
  Herbicidal rating CYPSE: 4.0

## CN(C)N1C(=O)CSC1=Nc1cc(-n2c(=O)cc(C(F)(F)F)n(C)c2=O)c(F)cc1Cl [Compound 23, 3-{4-Chloro-5-{[3-(dimethylamino)-4-oxo-2-thiazolidinylidine]amino}-2-fluorophenyl}-1-methyl-6-(trifluoromethyl)-2,4(1H,3H)-pyrimidinedione]
AMBEL (Ragweed, Common); rate 0.0158 kg/ha
  AMBEL herbicidal rating: 2.0
AMBEL (Ragweed, Common); rate 0.0315 kg/ha
  AMBEL herbicidal rating: 4.0
AMBEL (Ragweed, Common); rate 0.0630 kg/ha
  AMBEL herbicidal rating: 7.0
CASOB (Sicklepod) [1]; rate 0.0158 kg/ha
  CASOB herbicidal rating: 0.0
CASOB (Sicklepod) [1]; rate 0.0315 kg/ha
  CASOB herbicidal rating: 1.0
CASOB (Sicklepod) [1]; rate 0.0630 kg/ha
  CASOB herbicidal rating: 3.0
[2]; rate 0.0158 kg/ha
  CHEAL herbicidal rating: 2.0
[2]; rate 0.0315 kg/ha
  CHEAL herbicidal rating: 7.0
[2]; rate 0.0630 kg/ha
  CHEAL herbicidal rating: 9.0
GALAP (Galium) [3]; rate 0.0158 kg/ha
  GALAP herbicidal rating: 3.0
GALAP (Galium) [3]; rate 0.0315 kg/ha
  GALAP herbicidal rating: 7.0
GALAP (Galium) [3]; rate 0.0630 kg/ha
  GALAP herbicidal rating: 9.0
ECHCG (Barnyardgrass); rate 0.0158 kg/ha
  ECHCG herbicidal rating: 0.0
ECHCG (Barnyardgrass); rate 0.0315 kg/ha
  ECHCG herbicidal rating: 2.0
ECHCG (Barnyardgrass); rate 0.0630 kg/ha
  ECHCG herbicidal rating: 2.0
SETVI (Foxtail, Green); rate 0.0158 kg/ha
  SETVI herbicidal rating: 2.0
SETVI (Foxtail, Green); rate 0.0315 kg/ha
  SETVI herbicidal rating: 4.0
SETVI (Foxtail, Green); rate 0.0630 kg/ha
  SETVI herbicidal rating: 4.0
[4]; rate 0.0158 kg/ha
  GLXMAW herbicidal rating: 3.0
[4]; rate 0.0315 kg/ha
  GLXMAW herbicidal rating: 3.5
[4]; rate 0.0630 kg/ha
  GLXMAW herbicidal rating: 5.0
ORYSAT (Rice, Tebonnet); rate 0.0158 kg/ha
  ORYSAT herbicidal rating: 2.0
ORYSAT (Rice, Tebonnet); rate 0.0315 kg/ha
  ORYSAT herbicidal rating: 2.5
ORYSAT (Rice, Tebonnet); rate 0.0630 kg/ha
  ORYSAT herbicidal rating: 4.5
CASOB (Sicklepod) [5]; rate 0.0156 kg/ha
  CASOB preemergence herbicidal rating: 0.0
CASOB (Sicklepod) [5]; rate 0.0313 kg/ha
  CASOB preemergence herbicidal rating: 0.0
CASOB (Sicklepod) [5]; rate 0.0625 kg/ha
  CASOB preemergence herbicidal rating: 1.0
CASOB (Sicklepod) [5]; rate 0.1250 kg/ha
  CASOB preemergence herbicidal rating: 2.0
CASOB (Sicklepod) [5]; rate 0.2500 kg/ha
  CASOB preemergence herbicidal rating: 5.0
GALAP (Galium) [6]; rate 0.0156 kg/ha
  GALAP preemergence herbicidal rating: 0.0
GALAP (Galium) [6]; rate 0.0313 kg/ha
  GALAP preemergence herbicidal rating: 1.0
GALAP (Galium) [6]; rate 0.0625 kg/ha
  GALAP preemergence herbicidal rating: 1.0
GALAP (Galium) [6]; rate 0.1250 kg/ha
  GALAP preemergence herbicidal rating: 0.0
GALAP (Galium) [6]; rate 0.2500 kg/ha
  GALAP preemergence herbicidal rating: 2.0
ZEAMX (Corn, Field); rate 0.0156 kg/ha
  ZEAMX preemergence herbicidal rating: 0.0
ZEAMX (Corn, Field); rate 0.0313 kg/ha
  ZEAMX preemergence herbicidal rating: 1.0
ZEAMX (Corn, Field); rate 0.0625 kg/ha
  ZEAMX preemergence herbicidal rating: 2.0
ZEAMX (Corn, Field); rate 0.1250 kg/ha
  ZEAMX preemergence herbicidal rating: 5.0
ZEAMX (Corn, Field); rate 0.2500 kg/ha
  ZEAMX preemergence herbicidal rating: 7.0
CYPIR (Rice Flatsedge); 0.1160 kg/ha
  Herbicidal rating CYPIR: 0.0
CYPIR (Rice Flatsedge); 0.2310 kg/ha
  Herbicidal rating CYPIR: 0.0
CYPIR (Rice Flatsedge); 0.4630 kg/ha
  Herbicidal rating CYPIR: 0.0
CYPSE (Flatsedge) [7]; 0.1160 kg/ha
  Herbicidal rating CYPSE: 0.0
CYPSE (Flatsedge) [7]; 0.2310 kg/ha
  Herbicidal rating CYPSE: 0.0
CYPSE (Flatsedge) [7]; 0.4630 kg/ha
  Herbicidal rating CYPSE: 0.0
[8]; 0.1160 kg/ha
  Herbicidal rating SAGPY: 0.0
[8]; 0.2310 kg/ha
  Herbicidal rating SAGPY: 0.0
[8]; 0.4630 kg/ha
  Herbicidal rating SAGPY: 3.0
CYPSE (Flatsedge) [9]; rate 0.1160 kg/ha
  Herbicidal rating CYPSE: 0.0
CYPSE (Flatsedge) [9]; rate 0.2310 kg/ha
  Herbicidal rating CYPSE: 0.0
CYPSE (Flatsedge) [9]; rate 0.4630 kg/ha
  Herbicidal rating CYPSE: 0.0

From patent US20020137929A1, “1 - (3-heterocyclylphenyl) isothiourea, -isourea, -guanidine and -amidine herbicidal agents” (Intellectual Property Department, BASF Aktiengesellschaft, priority 1998, published 2002)
